The text below walks through data of ChEMBL document CHEMBL3507680, “University of Dundee, Gates Library screen for HepG2 cell viability”.

The nature of this data set: Human HepG2 cell viability assay in 384 well format. In kind it is toxicity, cell-based. Also noted: dose 125 nL, time 70.5 hour; concentration not given beside the values. To be noted: HepG2 cells, read-out: Inhibition.
For `Cc1cnn(CC2CN(CC(=O)Nc3c(C)nn(C)c3C)CCO2)c1` (stereo unspecified), the cytotoxicity at 70.5 h is -4.95%. For the molecule `CC(C)NC(=O)c1csc(NC2CC2)n1`, the cytotoxicity at 70.5 h was found to be 0.174%. As to `CC1CCC(N2Cc3nc(N)ncc3C2=O)CC1` (stereo unspecified), the cytotoxicity at 70.5 h was -12.4%. Turning to `CN1CCOC[C@H]1c1nc(-c2cccc(F)c2)c[nH]1`, the cytotoxicity at 70.5 h was determined as 2.61%. The result for `CC(Oc1ccc(F)cc1F)C(=O)N1CCC2(CC1)CC(=O)N(C)C2` (stereo unspecified) reads 27.3%; that for `Cc1cccc(OCC(O)CN2CCC(Cn3cccn3)CC2)c1` (stereo unspecified), 22.2%; that for `CC(C)c1nc(C2CCCN(C(=O)CCn3cncn3)C2)no1` (stereo unspecified), -2.58%. As to `CC(C)N1CCc2c(CN(C)Cc3ccco3)cncc2C1`, the cytotoxicity at 70.5 h stood at 5.22%. For the molecule `Cc1cc(C2CCCN(CC(=O)Nc3nc4c(s3)CCC4)C2)n[nH]1` (stereo unspecified), the cytotoxicity at 70.5 h turned out to be 18.9%. Regarding `Cc1nc(C)n(C2CCCN(C(=O)c3ccc(O)nc3)C2)n1` (stereo unspecified), the cytotoxicity at 70.5 h was -5.29%. As to `CNC(=O)NCC(CO)Cc1ccccc1OC(F)(F)F` (stereo unspecified), the cytotoxicity at 70.5 h is -5.84%.

For the molecule `O=C(N[C@@H]1CN(Cc2ccco2)[C@@H]2CCCO[C@@H]21)c1cscn1`, the cytotoxicity at 70.5 h was -5.42%. Take `CC(C)Cc1cc(C(=O)NCC(c2ccc(F)cc2)N(C)C)n(C)n1` (stereo unspecified): the cytotoxicity at 70.5 h is -15.4%. Regarding `COc1ncccc1CN1CC[C@]2(C[C@@H](OCc3ccccn3)CO2)C1`, the cytotoxicity at 70.5 h is -13.8%. Consider `Cc1ccc(Cl)cc1N1CCN(CC(=O)NCc2ccco2)CC1`, for which the cytotoxicity at 70.5 h turned out to be 7.45%. Take `CCn1nc(C)c(C(C)Nc2cc(C3CCNCC3)nc(C)n2)c1C` (stereo unspecified): the cytotoxicity at 70.5 h was -23.1%. For `CSCC(=O)NCc1cc(Br)ccc1OC(F)F`, the cytotoxicity at 70.5 h is -5.17%. Turning to `COc1ccc(Cl)cc1CCNC(=O)NCc1noc(C)n1`, the cytotoxicity at 70.5 h is -3.63%.

For the molecule `CCCN(CCS(C)(=O)=O)C1CCc2ccccc2C1` (stereo unspecified), the cytotoxicity at 70.5 h is -0.462%. As to `Cc1noc([C@@H]2C[C@H]3OCC[C@H]3N(S(C)(=O)=O)C2)n1`, the cytotoxicity at 70.5 h is -8.57%. As for `CC(C)(CN)NS(=O)(=O)c1c(F)cccc1F`, the cytotoxicity at 70.5 h was found to be 2.67%. As for `CCc1nc(C)c(C(=O)N2CCCC(c3noc(C)n3)C2)s1` (stereo unspecified), the cytotoxicity at 70.5 h is -6.51%. Turning to `O=C(NC1CC1)C1CCN(Cn2nc(-c3ccccc3)oc2=O)CC1`, the cytotoxicity at 70.5 h was determined as 25.1%. As to `CNC(=O)C1CC2(CCN(C(=O)c3csnn3)CC2)c2ccccc21` (stereo unspecified), the cytotoxicity at 70.5 h is 0.474%. As to `CCCS(=O)(=O)N1CCN(c2cc(-n3nc(C)cc3C)nc(C)n2)CC1`, the cytotoxicity at 70.5 h is -10.3%.

Regarding `CN1CCN(C(=O)CCc2cc(Br)cs2)CC1`, the cytotoxicity at 70.5 h was -6.76%. In the case of `CCn1nc(C)c(CNC(=O)NCC(C)(O)c2ccco2)c1C` (stereo unspecified), the cytotoxicity at 70.5 h is -1.92%.

On to `O=C(NCc1ccc(OCC2CC2)nc1)Nc1c(F)cccc1F`, for which the cytotoxicity at 70.5 h was -2.96%. In the case of `N[C@H]1CC[C@@H](Nc2nccc(CCC(F)(F)F)n2)CC1`, the cytotoxicity at 70.5 h was -2.71%. For the molecule `CN(C)C[C@H]1O[C@H](Cc2cc(-c3ccccn3)on2)CC[C@@H]1O`, the cytotoxicity at 70.5 h was -4.76%. Turning to `Cc1ccccc1C1CCN(CCn2cc(-c3nccn3C)nn2)C1` (stereo unspecified), the cytotoxicity at 70.5 h amounted to 2.36%. For `Cc1ccc(SCCCNC(=O)c2cn([C@H]3CC[C@@H](N)CC3)nn2)cc1`, the cytotoxicity at 70.5 h worked out at 20.6%.

With `Cc1ncsc1C(=O)NC1CCN(Cc2cccnc2)CC1`, the cytotoxicity at 70.5 h was found to be 0.341%. Turning to `O=C(c1cc(C2CC2)on1)N1CCCC(n2cccn2)C1` (stereo unspecified), the cytotoxicity at 70.5 h worked out at 23.8%.

For the molecule `O=C(NCC1(O)CCC1)c1c(O)cc(F)cc1F`, the cytotoxicity at 70.5 h came out at 13.9%.

Regarding `Cc1ccc(C2CCCCCN2CCNS(C)(=O)=O)o1` (stereo unspecified), the cytotoxicity at 70.5 h is -5.05%. The same measure for `CN(C)S(=O)(=O)N1CC[C@]2(C[C@H](Oc3cccnc3)CO2)C1`: -5.74%; for `CC(C)c1nccn1CCCNC(=O)c1ccc(N(C)C)nc1`: -1.73%; for `CNc1ncc(C(=O)N2CCOC(C(=O)N3CCCCCC3)C2)cn1` (stereo unspecified): -2.75%.

With `Cn1nccc1CNC(=O)Cn1nc(C(F)(F)F)cc1C1CC1`, the cytotoxicity at 70.5 h was -10.5%.

For `Cc1cccc(-c2noc(CN3CCn4c(nnc4C4CC4)C3)n2)c1`, the cytotoxicity at 70.5 h is -5%. With `CCn1ncc(C(=O)NCc2ccc(C)c(OC)c2)c1C(F)(F)F`, the cytotoxicity at 70.5 h is -21.3%. As to `CC(C)NC(=O)N1C[C@H](OCc2cccnc2)[C@H]2COC[C@H]21`, the cytotoxicity at 70.5 h worked out at 0.936%.

On to `Cn1nccc1C1CCN(CC(=O)NCC2CC2)CC1`, for which the cytotoxicity at 70.5 h is -8.55%.

As for `CN(C)c1nc2c(c(=O)[nH]1)CCN(C(=O)c1cccc3nccnc13)C2`, the cytotoxicity at 70.5 h turned out to be 2.31%. On to `CC(CC(=O)NCCCn1cccn1)c1cccnc1` (stereo unspecified), for which the cytotoxicity at 70.5 h is -6.56%. Consider `CCOc1cc(CNC(=O)N2CCC(Cc3cnn(C)c3)C2)ccn1` (stereo unspecified), for which the cytotoxicity at 70.5 h is -10.6%.

Turning to `CC(C)N1CCN(C(=O)C(C)n2cncn2)CC1` (stereo unspecified), the cytotoxicity at 70.5 h was 5.67%.

Regarding `CCN(C)c1nccc(N2CCN[C@H]3CS(=O)(=O)C[C@H]32)n1`, the cytotoxicity at 70.5 h turned out to be 10.7%.

For `c1cc(-c2cc(C3CCN(Cc4cncnc4)C3)ccn2)ccn1` (stereo unspecified), the cytotoxicity at 70.5 h is 0.319%. The same measure for `COCCCC(=O)N1CCC(Nc2cccnn2)CC1`: -10.4%; for `CC(C)c1nn(C)c(N(C)C)c1CNCCC(=O)NC1CCCC1`: 26.8%.

As to `Cc1nc(CNCc2cccc(OC34CCCN(CC3)C4)c2)n[nH]1` (stereo unspecified), the cytotoxicity at 70.5 h is -3.22%. As to `CCc1[nH]ncc1C(=O)N1CCCN(Cc2cnn(C)c2)CC1`, the cytotoxicity at 70.5 h was -10.9%. `CCc1nnc2sc(-c3cc(C(C)C)n[nH]3)nn12`: the cytotoxicity at 70.5 h was -1.02%. Take `COc1nc(N2CCNCC2)ncc1Br`: the cytotoxicity at 70.5 h is -9.1%. In the case of `CC(C)n1cc(N2CC(C(=O)N3CCCC3)CC2=O)cn1` (stereo unspecified), the cytotoxicity at 70.5 h is -6.71%. On to `CN(CCc1ccccc1)Cc1c(C2CCNCC2)[nH]c2ncccc12`, for which the cytotoxicity at 70.5 h is -6.11%.

With `COCCCNC(=O)CN(C)C(=O)c1cc(Cl)ccc1O`, the cytotoxicity at 70.5 h was 0.174%.

For the molecule `CCNC(=O)[C@@H]1C[C@H](N)CN1c1cc(CC)nc(N(C)C)n1`, the cytotoxicity at 70.5 h is -4.05%. The same measure for `CCc1nnc2n1CCN(CC(O)c1ccc3c(c1)OCCO3)C2` (stereo unspecified): 23.6%. Consider `COc1c(CNCc2ccc(CN(C)C)cc2)c(C)nn1C`, for which the cytotoxicity at 70.5 h was -4.98%.

Regarding `c1cnn(CC2CCCCN2c2ncnc3ccsc23)c1` (stereo unspecified), the cytotoxicity at 70.5 h was found to be 18.2%.

`NCc1n[nH]c(=O)n1-c1ccccc1Oc1ccccc1`: the cytotoxicity at 70.5 h turned out to be 9.56%.

With `Cc1nc(N(Cc2ccncc2)CC2CCCO2)c2ccsc2n1` (stereo unspecified), the cytotoxicity at 70.5 h is -5.47%. For `COc1ccc(CNC(=O)CCN2CCOC(C(F)(F)F)C2)cc1` (stereo unspecified), the cytotoxicity at 70.5 h was -7.56%.

Turning to `c1cnc(N2CCO[C@H]3[C@H](OCc4cccnc4)CC[C@@H]32)nc1`, the cytotoxicity at 70.5 h stood at 13.6%.

As for `COCC(=O)N1CCC2(CCCN(Cc3cc(OC)ccc3F)C2)C1` (stereo unspecified), the cytotoxicity at 70.5 h is -7.78%. As for `CN(C)c1nccc(C2CCN(C(=O)CO)CC2)n1`, the cytotoxicity at 70.5 h was 13.9%. `CCCn1cc(C(=O)N2CCCC2(C)c2nc(C)cc(N)n2)cn1` (stereo unspecified): the cytotoxicity at 70.5 h was -1.03%. As for `COCC(=O)N1CCC2(CC1)COCCN2Cc1ccc(F)cc1`, the cytotoxicity at 70.5 h was -11.6%.
